Where two headings read alike, the source gives them in different places.
Experiments:
[1] = tested on: BAC and ESCC cell lines versus the benign OE cell line (CPA); test: 96-well drug washout/outgrowth anti-proliferative assay (resazurin, day 6); assay type: cell-based; settings: all timepoints
Protocol: Tumour sensitivity towards Plk1 inhibitors was studied in a panel of oesophageal (OE) cell lines. The cell lines used were: a benign Barrett's (CPA), two Barrett's adenocarcinoma (OE19 and OE33; Sigma Aldrich), and two oesophageal squamous cell carcinoma cell lines (OE21, ECACC; and KYSE-410, ECACC).
The anti-proliferative effect of Plk1 inhibitors was studied in a 96-well format drug washout/outgrowth assay. Cells were seeded at 1.5-2.5×10^3 cells per well in 96-well plates and left to incubate overnight at 37° C., 5% CO2, before addition of a range of concentrations of each of the different Plk1 inhibitors. Cells were incubated with the compounds for various periods of time, ranging from 3 to 24 hours; media containing the compounds was then removed from the cells and replaced with drug-free media until the end of the assay. The cell viability was evaluated on day 6 using a standard resazurin-based assay according to manufacturer's instructions (AlamarBlue, AbD Serotec, Oxford, UK). The IC50 values were determined using IDBS software.

[2] = mouse, dose 35 mg/kg, Rudolph et al.; cited from earlier work
[3] = Mouse PK data for selected compounds of the invention; assay type: in vivo; settings: dose 1 mg/kg; for AUC / Cmax: plasma
Protocol: The plasma concentration is measured using standard LC-MS/MS analysis based on the following method. Calibration and control samples are prepared as follows from a 500 μg/mL solution of compound in methanol/DMSA 50/50 v/v. This stock solution is used to prepare diluted working standards of the test items with concentrations from 200 ng/ml to 500,000 ng/ml. The solutions are diluted with methanol and stored at +4° C. in glass vials when not in use. The working solutions are used to prepare calibration standards in control plasma, with a final concentration of between 10 ng/ml and 5000 ng/ml per 100 microlitres of plasma. These standards are prepared on day one of analysis and re-prepared as necessary on each analytical occasion. Internal standards are dissolved in methanol/DMSA 50/50 v/v and diluted to 1 μg/mL in acetonitrile for a working solution.
Plasma samples are extracted by the following method. Transfer 50 microlitres of each calibration, quality control and test sample to a 96-well mictrotitre plate. Add 200 microlitres of a 1 microgram per millilitre internal standard solution in acetonitrile to all samples except for a double blank. 200 microlitres of acetonitrile is added to the double blank. Samples are briefly vortex mixed, and centrifuged at 2128 g for 30 minutes. Recoverable supernatant is transferred to an appropriate well of a microtitre plate and extracts are evaporated with oxygen free nitrogen at a gas temperature of about 40° C. Extracts are reconstituted in 200 μL of mobile phase and mixed well. The plate is sealed with silicone-based pre-pierced web seal and used for LC-MS/MS analysis.
LC-MS/MS analysis can be performed using the following chromatography conditions.

| Compound | differentiation between the cancerous and the benign cell lines [1] | Cl_obs [2] | Cmax [2] | HL_Lambda_z [2] | Vz_obs [2] | Cl_obs [3] | HL_Lambda_z [3] | Vz_obs [3] | AUC [3] | Cmax [3] |
| --- | --- | --- | --- | --- | --- | --- | --- | --- | --- | --- |
| CC[C@@H]1C(=O)N(C)c2cnc(Nc3ccc(C(=O)NC4CCN(C)CC4)cc3OC)nc2N1C1CCCC1 [BI2536] | little or no differentiation |  |  |  |  |  |  |  |  |  |
| CC[C@@H]1C(=O)N(C)c2cnc(Nc3ccc(C(=O)N[C@H]4CC[C@H](N5CCN(CC6CC6)CC5)CC4)cc3OC)nc2N1C(C)C [BI6727] |  | 10 mL/min/kg | 4390 ng/mL | 46 h | 7.6 L/kg |  |  |  |  |  |
| COc1cc(C(=O)N[C@H]2CC[C@H](N3CCN(CC4CC4)CC3)CC2)ccc1Nc1ncc2c(n1)N(C1CCCC1)CC1(CC1)C(=O)N2C [Compound A1, 4-(9′-cyclopentyl-5′-methyl-6′-oxo-5′,6′,8′,9′-tetrahydrospiro[cyclopropane-1,7′-pyrimido[4,5-b][1,4]diazepine]-2′-ylamino)-N-((trans)-4-(4-(cyclopropylmethyl)piperazin-1-yl)cyclohexyl)-3-methoxybenzamide] |  |  |  |  |  | 21.22 mL/min/kg | 2.89 h | 5.304 L/kg | 631 ng·h/mL | 478 ng/mL |
| COc1cc(C(=O)N[C@H]2CC[C@H](N3CCN(C)CC3)CC2)ccc1Nc1ncc2c(n1)N(C1CCCC1)CC1(CC1)C(=O)N2C [Compound A7, 4-(9′-cyclopentyl-5′-methyl-6′-oxo-5′,6′,8′,9′-tetrahydrospiro[cyclopropane-1,7′-pyrimido[4,5-b][1,4]diazepine]-2′-ylamino)-N-((trans)-4-(4-methylpiperazin-1-yl)cyclohexyl)-3-methoxybenzamide] |  |  |  |  |  | 40.75 mL/min/kg | 1.97 h | 6.937 L/kg | 377 ng·h/mL | 453 ng/mL |
| COc1cc(C(=O)NC2CCN(C3CCOCC3)CC2)ccc1Nc1ncc2c(n1)N(C1CCCC1)CCC(=O)N2C [Compound A13, 4-(9-cyclopentyl-5-methyl-6-oxo-6,7,8,9-tetrahydro-5H-pyrimido[4,5-b][1,4]diazepin-2-ylamino)-3-methoxy-N-[1-(tetrahydro-pyran-4-yl)-piperidin-4-yl]-benzamide] |  |  |  |  |  | 99.8 mL/min/kg | 0.78 h | 6.713 L/kg | 164 ng·h/mL | 405 ng/mL |

Reference: patent US20150320762A1, “TREATMENT OF PROLIFERATIVE DISEASES WITH PYRIMIDODIAZEPINONES” (Cyclacel limited, priority 2012, published 2015)
